US20200246297A1, “LIQUID PHARMACEUTICAL FORMULATIONS OF TETRAIODOTHYRONINE” (priority 2015, published 2020)
Read-outs that look alike come from different tables or passages of the source.

What was measured:
[1] = Scanning electron microscopy (SEM) of the filter membrane surface; format: physicochemical; settings: T4 powder in water, comparative example
Procedure: These findings indicate that despite the 1:100 dilution process undergone by the original 150 μg/mL mixture, the formation of microaggregates remains stable, even after 8 h, and removes a considerable amount of the active ingredient from the pharmacological action.

[2] = Quantity of T4 microaggregates formed in water: HPLC T4 concentration before and after 0.2 μm microfiltration; format: physicochemical
Procedure: […] 50 mL of each sample taken is microfiltered through a Millipore GSWP02500 membrane with a porosity of 0.2 μm.
(§1) 50 mL of each sample taken is microfiltered through a Millipore GSWP02500 membrane with a porosity of […].
as §1
50 mL of each sample taken is microfiltered through a Millipore GSWP02500 membrane with a porosity of 0.2 μm.

[3] = cited from earlier work
[4] = Filtration through membranes with cut-off ≤100 KDa: T4 in the permeate; format: physicochemical
[5] = Protective effect of PEG: residual T4 assay by HPLC after 10 h stirring under nitrogen or oxygen; format: physicochemical; settings: 600 rpm, 35° C.
Procedure: 5 mL of each solution is left under stirring for 10 h at 600 rpm and 35° C. in a nitrogen atmosphere, and 5 mL is left under the same conditions but in an oxygen atmosphere.

[6] = Saturation of T4 solutions in PEG; format: physicochemical; settings: T4 solvated in PEG
Source text: Due to their structure, said nanoaggregates are easily absorbed at gastrointestinal level, and are therefore completely and certainly bioavailable.

[7] = cited from earlier work; remark: listed apart in the source
[8] = T4 150 μg/mL in 50% w/w aqueous PEG 400, 2000, 4000 or 8000 (all types), diluted 100 times in water pH 1.5, T0
[9] = T4 150 μg/mL in 50% w/w aqueous PEG 400, 2000, 4000 or 8000 (all types), diluted 100 times in water pH 6.5, T0
[10] = T4 150 μg/mL in PEG 200, 300, 400 or 600 (all types), diluted 100 times in water pH 6.5, T0

Substance: (2S)-2-amino-3-[4-(4-hydroxy-3,5-diiodo-oxyphenyloxy)-3,5-diiodophenyl]propanoic acid [T4]
- average length on the longer axis of elongated crystalline structures on the filter [1]: exceeding 3.03±1.40 μm
- T4 concentration after microfiltration ([2]; T4 150 μg/mL in 30% w/w aqueous PEG 400, 2000, 4000 or 8000 (all types), diluted 100 times in water pH 6.5, T0): 75 % of the value before microfiltration
- T4 concentration after microfiltration [2, 8]: 100 % of the theoretical value
- T4 concentration before microfiltration [2, 8]: 100 % of the theoretical value
- T4 concentration after microfiltration [2, 9]: 100 % of the theoretical value
- T4 concentration before microfiltration [2, 9]: 100 % of the theoretical value
- T4 concentration after microfiltration [2, 10]: 100 % of the theoretical value
- T4 concentration before microfiltration [2, 10]: 100 % of the theoretical value
- T4 concentration after microfiltration compared with before ([2]; T4 150 μg/mL in PEG 8000/glycerol or PEG/ethanol 50/50 w/w (both systems), diluted 100 times in water pH 6.5, T0): identical to that before microfiltration
- behaviour at later times (microfiltration) ([2]; T4 in 30% w/w aqueous PEG, diluted 100 times in water pH 6.5, T1h, T4h and T8h): behaviour similar to that at T0
- T4 concentration in the solution before microfiltration ([2]; T4 powder 150 μg/mL in water pH 6.5, diluted 1:100 in water pH 6.5, T0 (30 sec)): 97.3 % of the theoretical value
- T4 concentration after microfiltration ([2]; T4 powder 150 μg/mL in water pH 6.5, diluted 1:100 in water pH 6.5, T0 (30 sec), 0.2 μm filter): 18.5 % of the theoretical value
- T4 concentration in the solution before microfiltration ([2]; T4 powder in water pH 6.5, diluted 1:100, T1h): 97.9%
- T4 concentration after microfiltration ([2]; T4 powder in water pH 6.5, diluted 1:100, T1h, 0.2 μm filter): 27.1%
- T4 concentration in the solution before microfiltration ([2]; T4 powder in water pH 6.5, diluted 1:100, T4h): 98.2%
- T4 concentration after microfiltration ([2]; T4 powder in water pH 6.5, diluted 1:100, T4h, 0.2 μm filter): 27.5%
- T4 concentration in the solution before microfiltration ([2]; T4 powder in water pH 6.5, diluted 1:100, T8h): 97.5%
- T4 concentration after microfiltration ([2]; T4 powder in water pH 6.5, diluted 1:100, T8h, 0.2 μm filter): 23.7%
- half-life of the medicament ([3]; euthyroidism): about 7 days
- half-life of the medicament ([3]; hypothyroidism and pregnancy): 220 to 240 h
- share absorbed in the duodenum ([3]; oral, small intestine): 21%
- share absorbed in the ileum ([3]; oral, small intestine): 34%
- share absorbed in the jejunum ([3]; oral, small intestine): 45%
- time absorption takes ([3]; oral): about three
- T4 in the permeate of ≤100 KDa membrane ([4]; T4 in 50% PEG in water, diluted 100 times in water pH 6.5): quantitative absence of T4 in the permeate
- T4 in the permeate of ≤100 KDa membrane ([4]; T4 in 50% w/w aqueous PEG, diluted 100 times in water pH 1.5): quantitative absence of T4 in the permeate
- T4 in the permeate of ≤100 KDa membrane ([4]; T4 in PEG 200, 300, 400 or 600, diluted 100 times in water pH 6.5): quantitative absence of T4 in the permeate
- T4 in the permeate of ≤100 KDa membrane ([4]; T4 in PEG 8000/glycerol or PEG/ethanol 50/50 w/w, diluted 100 times in water pH 6.5): quantitative absence of T4 in the permeate
- T4 in the permeate of ≤100 KDa membrane ([4]; T4 in glycerin, ethanol or glycerin/ethanol 80/20 w/w, diluted 100 times in water pH 6.5): quantitative absence of T4 in the permeate
- T4 assay value of the solutions ([5]; T4 150 μg/mL in ethanol, glycerol, PEG 200, 300, 400 or 600 (all cases), nitrogen atmosphere): remains the same as the theoretical value
- residual T4 assay value ([5]; T4 150 μg/mL in glycerol or ethanol, oxygen atmosphere): 30 % of the original assay value
- concentration of T4 solution in PEG usable without the system becoming saturated [6]: up to 0.1 g/mL
- intrinsic dissolution rate (IDR) ([7]; entire physiological pH range): about 0.0002 mg/min/cm^2
- Biopharmaceutics Classification System class ([7]; high solubility and intestinal permeability): Class I
